Measured values as given in US9556417B2, “Reprogramming of cells to a new fate” (The Scripps Research Institute, priority 2010, dated 2017).

Columns and labels:
Wnt/β-catenin pathway = conditions: cited from earlier work
[1] = tested on: tail-tip fibroblasts (TTFs); experiment: Neural transdifferentiation of TTFs in presence of JAK inhibitor; assay type: cell-based, mouse; conditions: JAK inhibitor 1 0.5 μM from day 4 onward
Protocol: For TTF reprogramming, Lentivirus supernatants were produced and harvested as previously described (Takahashi K. et al. Cell 131(5):861-872 (2007)). Briefly, 293T cells (Invitrogen) were plated at 5×10^6 cells per 100 mm dish and incubated overnight in a 37° C. incubator. Cells were transfected with 4 μg pHAGE2-TetOminiCMV-STEMCCA (29) or FUW-M2rtTA (Addgene) along with packaging mix (1 μg psPAX2 and 3 μg pMD2.G) (Addgene) and FuGENE 6 Transfection Reagent (Roche), according to the manufacturer's instructions. The cells were then cultured in a 32° C. degree incubator, after which supernatants were collected at 48 and 72 hours (post-transfection) and filtered through a 0.45 μm filter (Millipore) before use. TTFs were prepared as previously described (Takahashi, K., et al., Cell 126(4):663-676 (2006)). Briefly, tails (only the final third) were cut into small pieces (less than 0.5 cm) and grown on gelatine-coated plates in MEF medium. Cells that migrated out of the tissue were transferred into new dish and used after one more passage (p3). After two rounds of transduction with STEMCCA and rtTA expressing virus, cells were plated on Geltrex-coated dishes at 2×10^4 cells/cm^2 and reprogrammed as described above. JAK inhibitor 1 (Calbiochem) was added from day 4 onward at 0.5 μM during TTF transdifferentiation. […]

Brachyury-EGFP ES cell = experiment: FACS analysis of mesodermal markers (Brachyury-GFP, Flk-1); assay type: cell-based, mouse; conditions: treated day 0-2, harvested day 4.5
Protocol: To ascertain what role calcium and cAMP might be playing in this early stage of cardiac differentiation, FACS was carried out using two markers involved in mesodermal fates. Specifically, a Brachyury-EGFP ES cell (a gift from the Keller lab) was used to identify cells progressing to a primitive streak type population. Further, cells were stained using a Flk-1 antibody to further delineate axial location of the primitive streak type cells. Briefly, cells were treated with small molecules for day 0-2, and harvested at day 4.5 for analysis.
Cells were harvested into a single cell suspension by treatment with 0.05% trypsin, quenched with serum containing medium, and resuspended in FACS buffer: lx PBS (Ca/Mg^2+ free), 1 mM EDTA, 25 mM HEPES pH 7.0, 1% Fetal Bovine Serum. Cells were then filtered with […], and stored at 4° C. until analysis.

R1 ES cells = experiment: Serum-free monolayer cardiac differentiation of ES cells, beating colonies; assay type: cell-based, mouse; conditions: early treatment window
Protocol: Having identified the first serum-free monolayer condition for cardiac differentiation of ES cells, we sought to test its efficacy as a platform to discover regulators of cardiomyogenesis. A collection of approximately 200 small molecules and growth factors reported to be influential in developmental processes were assembled. R1 ES cells were grown and plated for differentiation on Matrigel in 24-well plates using the media and growth factors described above. The screening collection was then added and removed from each well at specific time points in order to account for different developmental time windows. The collection was screened at days 0-2, 2-5, and 5-7.
Cells are plated at a density of 200,000 cells/well of a 6-well plate in 2.5 ml of ESGM. 6-well plates are coated overnight at 4° C. with 1 ml of Matrigel (BD Bioscience) diluted 50× from stock concentration. 24 hours after plating, or after sufficient colony size was achieved, cells are switched into chemically defined medium (CDM) and treated with 4 uM BIO (Calbiochem) and 20 ng/ml BMP-4 (R&D). CDM contains RPMI 1640, 0.5×N2, 1×B27 (without Vitamin A), 0.5× Glutamax, 0.55 mM beta-mercaptoethanol, 1× non-essential amino acids, 1× nucleosides. At Day 2, medium is changed, and again CDM containing 4 uM BIO with 20 ng/ml BMP-4 is added to the cells. At Day 5, cells are washed once with PBS and medium is changed to CDM containing 100 ng/ml Dkk-1 (R&D). At Day 7, medium is changed, and again CDM containing 100 ng/ml Dkk-1 is added to the cells. At Day 10, cells are trypsinized (0.05% trypsin) (Approximately 5 minutes at 37° C., or until cells begin to detach) and replated onto gelatin coated 6-well plates in CDM with no additional growth factors. By this time, the cells will have formed tight colonies that will be difficult to disrupt (Supplementary FIG. 2b). […] The trypsin is used primarily to detach the cells rather than to dissociate them to a single cell suspension. It is preferable for the colonies to remain intact. The trypsin is briefly quenched with MEF media, cells are centrifuged, and resuspended in CDM for plating. Medium is refreshed as needed to remove dead cells and debris (every 1 to 2 days).

For Cc1ccc2nc(NC(=O)CSc3nc4c(c(=O)n3-c3ccccc3)SCC4)sc2c1 [IWP-2, 2-(3,4,6,7-tetrahydro-4-oxo-3-phenylthieno[3,2-d]pyrimidin-2-ylthio)-N-(6-methylbenzo[d]thiazol-2-yl)acetamide], the IC50 (Wnt/β-catenin pathway) is given as 27 nM.
With CC(C)(C)c1nc2c3ccc(F)cc3c3c(=O)[nH]ccc3c2[nH]1 [JAK inhibitor1] the “Pax6 expression of colonies” value [1] was “all remaining colonies homogeneously expressed Pax6” and the “decrease in number of colonies” value [1] was “around 30%”.
For CC(C)NCC(O)COc1cccc2ccccc12 (centres unmarked) [propranolol], the “Flk-1 positive portion of GFP+ cells” value (Brachyury-EGFP ES cell) was “decreased” and the “cardiac differentiation / percentage of beating colonies” value (R1 ES cells) was “greatly decreased cardiac potential”.
